From publication PMC4596572, “Ligand Discovery for the Alanine-Serine-Cysteine Transporter (ASCT2, SLC1A5) from Homology Modeling and Virtual Screening” (PLoS Computational Biology, 2015)
Read-outs that look alike come from different tables or passages of the source.

Key:
rat ASCT2 = molecular target: T1, rat ASCT2 (Rattus norvegicus, UniProt D3ZJ25); assay: Whole-cell patch-clamp recording of ASCT2-associated anion current in transfected HEK293 cells; format: cell-based; details: for Km: apparent Km for the active compounds from anion current dose response, called Ki in text for the inhibitors L-DOPS and γ-FBP; for Imax, maximum currents relative to 1 mM alanine: whole-cell anion current, membrane potential 0 mV, internal 130 mM NaSCN and 10 mM alanine, negative = outward current (inhibitor)
T1 construct: The coding region of the cDNA was subcloned into the EcoRI site of the pBK-CMV vector; expressed in transfected cells; host or cells: HEK293 (human embryonic kidney), transient transfection, pBK-CMV vector
T1 sequence (D3ZJ25 1-555): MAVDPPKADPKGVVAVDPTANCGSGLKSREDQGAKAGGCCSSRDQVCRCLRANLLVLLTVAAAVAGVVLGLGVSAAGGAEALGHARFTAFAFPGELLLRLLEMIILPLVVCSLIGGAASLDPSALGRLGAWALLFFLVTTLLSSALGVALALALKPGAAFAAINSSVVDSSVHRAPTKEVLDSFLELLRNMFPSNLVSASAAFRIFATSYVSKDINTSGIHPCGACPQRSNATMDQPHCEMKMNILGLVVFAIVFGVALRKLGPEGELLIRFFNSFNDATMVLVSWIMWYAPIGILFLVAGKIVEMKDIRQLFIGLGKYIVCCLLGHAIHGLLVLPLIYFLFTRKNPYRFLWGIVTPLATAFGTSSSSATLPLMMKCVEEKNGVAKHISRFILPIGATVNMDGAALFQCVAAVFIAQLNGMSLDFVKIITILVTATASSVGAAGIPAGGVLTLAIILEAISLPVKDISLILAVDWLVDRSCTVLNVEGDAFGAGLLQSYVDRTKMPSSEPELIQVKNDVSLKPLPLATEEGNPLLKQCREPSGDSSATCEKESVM
From the text: We used transporter-mediated anion current as a measure of transport/inhibition activity […] We have previously shown that anion current is a measure of transport activity, due to the kinetic coupling of transport and anion flux, and this fact is also well established for the homologous glutamate transporters, which have a much more rigorously determined pharmacology. Anion current is activated when the transporter visits certain states in the transport cycle, such as the fully Na^+/substrate occupied state (substrate-induced anion conductance), or the Na^+-bound state (leak conductance). Thus, transported substrates induce anion current and non-transported inhibitors block the leak anion current. […] Functional characterization by patch clamping is a powerful approach when combined with virtual screening that prioritizes molecules from large libraries, but precludes screening of large amounts of compounds due to its labor-intensive nature.
cDNA coding for rat ASCT2 was kindly provided by S. Bröer. The coding region of the cDNA was subcloned into the EcoRI site of the pBK-CMV vector (Stratagene). The cDNA construct was used to transiently transfect human embryonic kidney cells (HEK293, ATCC No. CGL 1573) with leptrime reagent (Polyplus, Ilkrich, France). Transfection was performed as detailed in the supplier’s instructions. Electrophysiological recordings were performed 24–48 h after transfection.
ASCT2-associated whole-cell currents were recorded with an Adams & List EPC7 amplifier (HEKA, Lambrecht, Germany) using voltage-clamp conditions. Open-tip electrode resistances were 2–3 MΩ and the series resistance (R S) was 5–8 MΩ. R S was not compensated in the recordings, as compensation had no effect on the magnitude of the observed currents. The extracellular bath solution contained (in mM): 140 NaMES, 2 MgGluconate2, 2 CaGluconate2, and 10 HEPES (MES = methanesulfonic acid, pH 7.4 / NaOH). The pipette solution contained (in mM): 130 NaSCN, 2 MgCl2, 10 EGTA, 10 HEPES, and 10 L-alanine/cysteine (pH 7.3 / NaOH). Using this intracellular solution, the transporters operate in the Na^+/alanine exchange mode. Here, external alanine is exchanged with internal alanine in the absence of net transport. The exchange mode is associated with the activation of an uncoupled anion current, which was used as an indirect measure of transport activity. The currents were low pass filtered at 3 kHz (EPC7 built-in filter) and digitized with a digitizer board (Digidata 1200, Axon Instruments, Foster City, CA, USA) at a sampling rate of 10–50 kHz (controlled by software, Axon PClamp7). All experiments were performed at room temperature. Rapid solution exchange was essentially performed as described previously. Briefly, substrates and inhibitors were applied to the ASCT2-expressing HEK293 cells with a quartz tube (350 μm tube diameter) positioned at a distance of ≈0.5 mm to the cell. The linear flow rate of the solutions emerging from the opening of the tube was approximately 5–10 cm/s.

[1] = molecular target: T2, ASCT2 mediated glutamine uptake in C8161 melanoma cells (Homo sapiens, UniProt Q15758); assay: [3H]-L-glutamine uptake assay in C8161 cells; format: cell-based; details: 15 min, 37°C, n = 3
T2 construct: endogenous in cells; host or cells: C8161 human melanoma cell line
T2 sequence (Q15758 1-541): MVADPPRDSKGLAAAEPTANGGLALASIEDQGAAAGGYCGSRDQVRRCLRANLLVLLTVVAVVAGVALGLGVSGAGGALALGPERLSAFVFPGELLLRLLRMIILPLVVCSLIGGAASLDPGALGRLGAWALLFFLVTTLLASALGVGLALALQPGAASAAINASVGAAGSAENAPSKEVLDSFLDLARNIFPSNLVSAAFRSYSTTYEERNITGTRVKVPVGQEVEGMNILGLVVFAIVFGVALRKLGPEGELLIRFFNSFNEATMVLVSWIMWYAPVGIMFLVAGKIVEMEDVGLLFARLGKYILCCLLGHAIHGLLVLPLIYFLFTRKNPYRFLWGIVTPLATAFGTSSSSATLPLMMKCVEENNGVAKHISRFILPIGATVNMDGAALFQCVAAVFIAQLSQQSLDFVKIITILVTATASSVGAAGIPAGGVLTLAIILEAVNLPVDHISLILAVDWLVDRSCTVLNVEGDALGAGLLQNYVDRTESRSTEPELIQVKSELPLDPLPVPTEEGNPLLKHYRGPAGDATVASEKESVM
Description: We have previously shown that ASCT2 mediates glutamine uptake in C8161 human melanoma cells, and that blocking ASCT2 activity inhibits cell growth and viability (Methods). […] In the presence these compounds, [^3H]-L-glutamine uptake was decreased in a dose-dependent manner in C8161 cells, in agreement with their elicitation of current as activators and potential substrates (Fig 8A–8C).
Human melanoma cell line C8161 culture was performed as previously described. Media used was DMEM/F12 medium (Life Technologies) containing 5% (v/v) fetal bovine serum (FBS), penicillin-streptomycin solution (Sigma-Aldrich). Cells were maintained at 37°C in a fully humidified atmosphere containing 5% CO2. Inhibitors (chloroalanine, AOC and γ-FBP) were resuspended in H2O, with control cells treated with the appropriate concentrations of vehicle alone.
C8161 cells (1 × 10^5/well) were incubated with [^3H]-L-glutamine (400 nM; PerkinElmer) in MEM media (Life Technologies) for 15 min at 37°C in the presence or absence of each inhibitor. Cells were collected and transferred to filter paper using a 96-well plate harvester (Wallac PerkinElmer), dried, exposed to scintillation fluid and counts measured using a liquid scintillation counter (PerkinElmer).

| Ki (rat ASCT2; absence of alanine, read-out: apparent Ki in the absence of alanine) [mM] | Concentration down to which alanine activation is alleviated (rat ASCT2; alanine + compound) [µM] | Ki (rat ASCT2; alanine-induced currents (100 μM alanine), read-out: Ki in the presence of alanine) [mM] | Km (rat ASCT2) [µM] | Response relative to saturating [alanine] (rat ASCT2; outward current) | Imax, maximum currents relative to 1 mM alanine (rat ASCT2) | IC50 [1] [mM] | Compound | Anion current response / ligand character (rat ASCT2; whole-cell current, result in words) |
| --- | --- | --- | --- | --- | --- | --- | --- | --- |
| 0.087 ± 0.022 | ≥ 100 | 0.25 ± 0.075 | 87 ± 22 | -0.64 ± 0.13 | -0.64 ± 0.13 | 10 to 15 | O=C(O)C1CC(Cc2ccccc2F)CN1 (centres unmarked) [γ-FBP] |  |
|  |  |  | 220 ± 20 |  | 1.17 ± 0.13 | 10 to 15 | NC1(C(=O)O)COC1 |  |

| Compound | Ki (rat ASCT2; absence of alanine, read-out: apparent Ki in the absence of alanine) [mM] | Concentration down to which alanine activation is alleviated (rat ASCT2; alanine + compound) [µM] | Ki (rat ASCT2; alanine-induced currents (100 μM alanine), read-out: Ki in the presence of alanine) [mM] | Km (rat ASCT2) [µM] | Response relative to saturating [alanine] (rat ASCT2; outward current) | Imax, maximum currents relative to 1 mM alanine (rat ASCT2) | IC50 [1] [mM] | Anion current response / ligand character (rat ASCT2; whole-cell current, result in words) |
| --- | --- | --- | --- | --- | --- | --- | --- | --- |
| NC(CCl)C(=O)O (centres unmarked) [Chloroalanine] |  |  |  | 900 ± 120 |  | 1.28 ± 0.22 | 9.2 | activated inwardly-directed anion currents |
